Laboratory results from US9745335B2 (Blirt S.A., priority 2012, dated 2017).

Experiments:
[1] = system: LLC-PK1 cells; assay: cytotoxic activity against mammalian cells in tissue culture (MTT); assay type: cell-based, pig
[2] = system: Candida stellatoidea CBS 1905; assay: antifungal activity in vitro, broader spectrum; assay type: cell-based
Description: (§1) For the determination of antifungal activity in vitro we used method of serial dilution in buffered medium RPMI 1640, pH 7.0, in a 96-wells microplates, according to the standard procedure (National Committee for Clinical Laboratory Standards. Reference method for broth dilution antifungal susceptibility testing of yeast, approved standard, 2nd ed. M27-A2 vol. 22 Wayne, Pa., 2002). The optical density of cells suspension was measured using a microplates reader (Victor^3, Perkin-Elmer) at the wavelength λ=531 nm (A531). On the basis of obtained results the diagrams of relation between A531 values and concentration of examined compound were made.
(§2) Obtained results are presented below in tables 2A and 2B.

[3] = system: Trichoderma viride LOCK E159; assay: antifungal activity in vitro, broader spectrum; assay type: cell-based
Description: as §1, §2

[4] = system: Candida albicans SC 5314; assay: antifungal activity in vitro, broader spectrum; assay type: cell-based
Description: as §1, §2

[5] = system: Candida parapsilosis DSM 5784; assay: antifungal activity in vitro, broader spectrum; assay type: cell-based
Description: as §1, §2

[6] = system: Candida pseudotropicalis KKP 324; assay: antifungal activity in vitro, broader spectrum; assay type: cell-based
Description: as §1, §2

[7] = system: Candida arborea KKP 319; assay: antifungal activity in vitro, broader spectrum; assay type: cell-based
Description: as §1, §2

[8] = system: Candida lipolytica KKP 322; assay: antifungal activity in vitro, broader spectrum; assay type: cell-based
Description: as §1, §2

[9] = system: Candida dubliniensis CBS 7987; assay: antifungal activity in vitro, broader spectrum; assay type: cell-based
Description: as §1, §2

[10] = system: Candida quilliermondii DSM 11947; assay: antifungal activity in vitro, broader spectrum; assay type: cell-based
Description: as §1, §2

[11] = system: Aspergillus niger LOCK E201; assay: antifungal activity in vitro, broader spectrum; assay type: cell-based
Description: as §1, §2

[12] = system: Candida krusei DSM 6128; assay: antifungal activity in vitro, serial dilution in RPMI 1640; assay type: cell-based
Procedure, shortened: (§3)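 Compounds are serially diluted in buffered RPMI 1640 (pH 7.0) per the M27-A2 broth dilution method for yeasts. Cell suspension absorbance is then measured at 531 nm. Dose–response plots of A531 against concentration give the activity.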

[13] = system: Candida albicans ATCC 10231; assay: as above; assay type: cell-based
Procedure, shortened: as §3

[14] = system: Candida tropicalis KKP 334; assay: as above; assay type: cell-based
Procedure, shortened: as §3

[15] = system: Candida glabrata DSM 11226; assay: as above; assay type: cell-based
Procedure, shortened: as §3

[16] = system: Saccharomyces cerevisiae ATCC 9763; assay: as above; assay type: cell-based; conditions: RPMI 1640, pH 7.0; for Antifungal activity IC50: Saccharomyces cerevisiae ATCC 9763 (first head over MIC and IC50); for Antifungal activity MIC: Saccharomyces cerevisiae ATCC 9763
Procedure, shortened: as §3

[17] = system: Candida lusitaniae DSM 70102; assay: as above; assay type: cell-based
Procedure, shortened: as §3

[18] = system: Human erythrocytes; assay: hemotoxicity determination (hemolytic activity); assay type: cell-based
Procedure, shortened: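 Human erythrocytes (2×10^7/ml in saline) were incubated with serially diluted compound for 30 min at 37 °C and then centrifuged. Released haemoglobin was read at A540 against a 0.1% Triton X-100 full-lysis control. EH50 is the interpolated concentration giving 50% of the control A540.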

[19] = system: Candida albicans clinical strain B4 (CaMdr1p); assay: antifungal activity against MDR fungal strains and parents; assay type: cell-based; conditions: C. albicans B4 (CaMdr1p), fluconazole-resistant
Description: as §1

[20] = system: Candida albicans strain STY7 (CaCdr1p); assay: as above; assay type: cell-based; conditions: C. albicans STY7 (CaCdr1p), 5674 derivative, deletion of CDR2
Description: as §1

[21] = system: Candida albicans strain STY31; assay: as above; assay type: cell-based; conditions: C. albicans STY31, 5674 derivative, deletion of CDR1 and CDR2
Description: as §1

[22] = system: Candida albicans clinical strain F5 (CaMdr1p); assay: as above; assay type: cell-based; conditions: C. albicans F5 (CaMdr1p), fluconazole-resistant
Description: as §1

[23] = system: Candida albicans clinical strain B3; assay: as above; assay type: cell-based; conditions: C. albicans B3, fluconazole sensitive, parent strain for B4
Description: as §1

[24] = system: Candida albicans clinical strain F2; assay: as above; assay type: cell-based; conditions: C. albicans F2, fluconazole sensitive, parent strain for F5
Description: as §1

[25] = system: Candida albicans clinical strain Gu5 (CaCdr1p, CaCdr2p); assay: as above; assay type: cell-based; conditions: C. albicans Gu5 (CaCdr1p, CaCdr2p), fluconazole-resistant
Description: as §1

[26] = system: Candida albicans clinical strain Gu4; assay: as above; assay type: cell-based; conditions: C. albicans Gu4, fluconazole sensitive, parent strain for Gu5
Description: as §1

[27] = system: Candida albicans strain 5674 (CaCdr1p, CaCdr2p); assay: as above; assay type: cell-based; conditions: C. albicans 5674 (CaCdr1p, CaCdr2p)
Description: as §1

[28] = system: CCRF-CEM cells; assay: cytotoxic activity against mammalian cells in tissue culture (MTT); assay type: cell-based, human
[29] = system: HepG2 cells; assay: as above; assay type: cell-based, human

Substance	IC50 (cytotoxic activity) [1]	Antifungal activity MIC [2]	Antifungal activity MIC [3]	Antifungal activity MIC [4]	Antifungal activity MIC [5]	Antifungal activity MIC [6]	Antifungal activity MIC [7]	Antifungal activity MIC [8]	Antifungal activity MIC [9]	Antifungal activity MIC [10]	Antifungal activity MIC [11]	Antifungal activity MIC [12]	Antifungal activity MIC [13]	Antifungal activity MIC [14]	Antifungal activity MIC [15]	Antifungal activity IC50 [16]	Antifungal activity MIC [16]	Antifungal activity MIC [17]	Hemotoxi EH50 [18]	Antifungal activity MIC [19]	also measured
N-(4-N,N-diethylaminobenzyl)amphotericin B [Compound A19]	>100 µg/mL	1 µg/mL	4 µg/mL	0.5 µg/mL	2 µg/mL	0.5 µg/mL	2 µg/mL	2 µg/mL	0.5 µg/mL	2 µg/mL	1 µg/mL	2 µg/mL	1 µg/mL	1 µg/mL	2 µg/mL	0.53 µg/mL	1 µg/mL	1 µg/mL	>100 µg/mL	2 µg/mL	Antifungal activity MIC [20]: 1 µg/mL; Antifungal activity MIC [21]: 1 µg/mL; Antifungal activity MIC [22]: 2 µg/mL; Antifungal activity MIC [23]: 1 µg/mL; Antifungal activity MIC [24]: 2 µg/mL; Antifungal activity MIC [25]: 1 µg/mL; Antifungal activity MIC [26]: 1 µg/mL; Antifungal activity MIC [27]: 1 µg/mL; IC50 (cytotoxic activity) [28]: >100 µg/mL; IC50 (cytotoxic activity) [29]: >100 µg/mL
N-(L-N,N-diethylphenylalanyl)amphotericin B [Compound A42]	>100 µg/mL	4 µg/mL	2 µg/mL	4 µg/mL	4 µg/mL	4 µg/mL	4 µg/mL	4 µg/mL	2 µg/mL	4 µg/mL	1 µg/mL	8 µg/mL	4 µg/mL	4 µg/mL	8 µg/mL	2.75 µg/mL	4 µg/mL	4 µg/mL	>100 µg/mL	8 µg/mL	Antifungal activity MIC [20]: 4 µg/mL; Antifungal activity MIC [21]: 4 µg/mL; Antifungal activity MIC [22]: 2 µg/mL; Antifungal activity MIC [23]: 2 µg/mL; Antifungal activity MIC [24]: 1 µg/mL; Antifungal activity MIC [25]: 4 µg/mL; Antifungal activity MIC [26]: 2 µg/mL; Antifungal activity MIC [27]: 4 µg/mL; IC50 (cytotoxic activity) [28]: >100 µg/mL; IC50 (cytotoxic activity) [29]: >100 µg/mL
N-(L-N,N-dimethylphenylalanyl)amphotericin B [Compound A43]	>100 µg/mL	1 µg/mL	4 µg/mL	1 µg/mL	1 µg/mL	2 µg/mL	8 µg/mL	1 µg/mL	1 µg/mL	1 µg/mL	1 µg/mL	4 µg/mL	4 µg/mL	4 µg/mL	4 µg/mL	1.43 µg/mL	4 µg/mL	2 µg/mL	>100 µg/mL	1 µg/mL	Antifungal activity MIC [20]: 0.5 µg/mL; Antifungal activity MIC [21]: 1 µg/mL; Antifungal activity MIC [22]: 4 µg/mL; Antifungal activity MIC [23]: 0.5 µg/mL; Antifungal activity MIC [24]: 4 µg/mL; Antifungal activity MIC [25]: 2 µg/mL; Antifungal activity MIC [26]: 1 µg/mL; Antifungal activity MIC [27]: 1 µg/mL; IC50 (cytotoxic activity) [28]: >100 µg/mL; IC50 (cytotoxic activity) [29]: >100 µg/mL
N-methyl-L-(O^γ-tert-butyl)glutamylamphotericin B [Compound A34]	>100 µg/mL	1 µg/mL	4 µg/mL	1 µg/mL	1 µg/mL	1 µg/mL	4 µg/mL	1 µg/mL	1 µg/mL	2 µg/mL	2 µg/mL	4 µg/mL	4 µg/mL	4 µg/mL	4 µg/mL	1.22 µg/mL	2 µg/mL	2 µg/mL	>100 µg/mL	2 µg/mL	Antifungal activity MIC [20]: 2 µg/mL; Antifungal activity MIC [21]: 2 µg/mL; Antifungal activity MIC [22]: 8 µg/mL; Antifungal activity MIC [23]: 1 µg/mL; Antifungal activity MIC [24]: 4 µg/mL; Antifungal activity MIC [25]: 2 µg/mL; Antifungal activity MIC [26]: 1 µg/mL; Antifungal activity MIC [27]: 4 µg/mL; IC50 (cytotoxic activity) [28]: >100 µg/mL; IC50 (cytotoxic activity) [29]: >100 µg/mL
